In patent US6509371B1, “Compositions containing Bergamottin for increasing the oral bioavailability of pharmaceutical agents” (Warner-Lambert Company, priority 1997, dated 2003):
Where two headings read alike, the source gives them in different places.

Assays:
P450 3A4 [1] = target: T1, P450 3A4 (Homo sapiens, UniProt P08684); experiment: BG-mediated inactivation of P450 3A4 in a reconstituted system, testosterone 6β-hydroxylation activity; conditions: reconstituted system
Target sequence in this assay (P08684 with tags, fused parts or gaps): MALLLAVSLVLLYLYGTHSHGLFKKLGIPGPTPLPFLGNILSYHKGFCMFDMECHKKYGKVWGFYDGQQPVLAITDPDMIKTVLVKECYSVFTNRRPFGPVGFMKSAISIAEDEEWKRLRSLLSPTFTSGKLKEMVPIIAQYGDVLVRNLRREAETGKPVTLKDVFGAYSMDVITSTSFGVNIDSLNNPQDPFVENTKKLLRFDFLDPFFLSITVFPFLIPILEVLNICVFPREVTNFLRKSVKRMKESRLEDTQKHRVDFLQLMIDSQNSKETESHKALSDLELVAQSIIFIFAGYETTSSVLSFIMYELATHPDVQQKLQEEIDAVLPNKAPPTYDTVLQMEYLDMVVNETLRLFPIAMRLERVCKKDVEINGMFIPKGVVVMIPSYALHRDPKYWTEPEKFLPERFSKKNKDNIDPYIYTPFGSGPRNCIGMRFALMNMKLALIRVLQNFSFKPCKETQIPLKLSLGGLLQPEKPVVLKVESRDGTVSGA

P450 3A4 [2] = target: T1, P450 3A4; conditions: in vivo; cited from earlier work
Target sequence in this assay (P08684 whole entry): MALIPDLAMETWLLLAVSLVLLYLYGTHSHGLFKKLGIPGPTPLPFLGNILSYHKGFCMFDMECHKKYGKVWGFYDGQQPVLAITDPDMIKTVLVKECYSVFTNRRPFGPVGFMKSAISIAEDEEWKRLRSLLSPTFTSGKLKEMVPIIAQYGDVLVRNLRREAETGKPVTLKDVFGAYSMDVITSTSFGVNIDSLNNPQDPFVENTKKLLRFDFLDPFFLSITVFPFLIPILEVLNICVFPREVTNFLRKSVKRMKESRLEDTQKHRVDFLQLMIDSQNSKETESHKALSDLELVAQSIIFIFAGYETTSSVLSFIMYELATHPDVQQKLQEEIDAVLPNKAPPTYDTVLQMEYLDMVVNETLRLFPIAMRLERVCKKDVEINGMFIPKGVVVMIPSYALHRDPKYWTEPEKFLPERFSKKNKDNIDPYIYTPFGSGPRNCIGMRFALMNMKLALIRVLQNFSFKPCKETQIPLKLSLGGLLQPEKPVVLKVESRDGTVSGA

[3] = cited from earlier work
P450 3A4 [4] = target: T1, P450 3A4; conditions: other potent inactivators of P450 3A4, literature; cited from earlier work
Target sequence in this assay (P08684 whole entry): as above

SMILES | Fraction Metabolized (P450 3A4 [2]) | Oral Bioavailability ([3]; oral) | also measured
CC(=CCOc1c2ccoc2cc2oc(=O)ccc12)CCC(O)C(C)(C)O (stereo not drawn) [6′,7′-dihydroxybergamottin] |  |  | Kinactivation (maximal rate constant of inactivation) (P450 3A4 [1]): 0.16 min⁻¹
COc1ccc(CCN2CCC(Nc3nc4ccccc4n3Cc3ccc(F)cc3)CC2)cc1 [Astemizole] | >90% | Low | 
CC[C@H]1OC(=O)[C@H](C)[C@@H](O[C@H]2C[C@@](C)(OC)[C@@H](O)[C@H](C)O2)[C@H](C)[C@@H](O[C@@H]2O[C@H](C)C[C@H](N(C)C)[C@H]2O)[C@](C)(O)C[C@@H](C)CN(C)[C@H](C)[C@@H](O)[C@]1(C)O [Azithromycin] |  | 35-45% | 
NC(=O)N1c2ccccc2C=Cc2ccccc21 [Carbamazepine] | >90% | >70% | 
COc1cc(N)c(Cl)cc1C(=O)NC1CCN(CCCOc2ccc(F)cc2)CC1OC (stereo not drawn) [Cisapride] |  | 35-40% | 
CC[C@H]1OC(=O)[C@H](C)[C@@H](O[C@H]2C[C@@](C)(OC)[C@@H](O)[C@H](C)O2)[C@H](C)[C@@H](O[C@@H]2O[C@H](C)C[C@H](N(C)C)[C@H]2O)[C@](C)(OC)C[C@@H](C)C(=O)[C@H](C)[C@@H](O)[C@]1(C)O [Clarithromycin] | >70% | 50-55% | 
CN1C[C@H](C(=O)N[C@]2(C)O[C@@]3(O)[C@@H]4CCCN4C(=O)[C@H](Cc4ccccc4)N3C2=O)C=C2c3cccc4[nH]cc(c34)C[C@H]21 [Ergotamine] | >90% | <1% | 
CC[C@H]1OC(=O)[C@H](C)[C@@H](O[C@H]2C[C@@](C)(OC)[C@@H](O)[C@H](C)O2)[C@H](C)[C@@H](O[C@@H]2O[C@H](C)C[C@H](N(C)C)[C@H]2O)[C@](C)(O)C[C@@H](C)C(=O)[C@H](C)[C@@H](O)[C@]1(C)O [Erythromycin] |  | 30-65% | 
COc1cc([C@@H]2c3cc4c(cc3[C@@H](O[C@@H]3O[C@@H]5CO[C@@H](C)O[C@H]5[C@H](O)[C@H]3O)[C@H]3COC(=O)[C@H]23)OCO4)cc(OC)c1O [Etoposide] |  | 35-70% | 
CCOC(=O)C1=C(C)NC(C)=C(C(=O)OC)C1c1cccc(Cl)c1Cl (stereo not drawn) [Felodipine] |  | 15-25% | 
CC(C)n1c(/C=C/C(O)CC(O)CC(=O)O)c(-c2ccc(F)cc2)c2ccccc21 (stereo not drawn) [Fluvastatin] | ˜90% | 50-9% | 
COC(=O)C1=C(C)NC(C)=C(C(=O)OC(C)C)C1c1cccc2nonc12 (stereo not drawn) [Isradipine] | >90% | 15-25% | 
CCC(C)n1ncn(-c2ccc(N3CCN(c4ccc(OCC5COC(Cn6cncn6)(c6ccc(Cl)cc6Cl)O5)cc4)CC3)cc2)c1=O (stereo not drawn) [Itraconazole] | >90% | 44-55% | 
Cc1ncc2n1-c1ccc(Cl)cc1C(c1ccccc1F)=NC2 [Midazolam] | >90% |  | Oral Bioavailability ([3]; in vivo, po): 40-50%
COC(=O)C1=C(C)NC(C)=C(C(=O)OCCN(C)Cc2ccccc2)C1c1cccc([N+](=O)[O-])c1 (stereo not drawn) [Nicardipine] | >90% | 20-30% | 
COCCOC(=O)C1=C(C)NC(C)=C(C(=O)OC(C)C)C1c1cccc([N+](=O)[O-])c1 (stereo not drawn) [Nimodipine] |  | 15-10% | 
COC(=O)C1=C(C)NC(C)=C(C(=O)OCC(C)C)C1c1ccccc1[N+](=O)[O-] (stereo not drawn) [Nisoldipine] |  | ˜5% | 
CCOC(=O)C1=C(C)NC(C)=C(C(=O)OC)C1c1cccc([N+](=O)[O-])c1 (stereo not drawn) [Nitrendipine] | >90% | 16-6% | 
O=c1[nH]c2ccccc2n1C1CCN(CCCC(c2ccc(F)cc2)c2ccc(F)cc2)CC1 [Pimozide] | >90% |  | 
CC[C@H](C)C(=O)O[C@H]1C[C@H](O)C=C2C=C[C@H](C)[C@H](CC[C@@H](O)C[C@@H](O)CC(=O)O)[C@H]21 [Pravastatin] | >50% | 25-10% | 
CO[C@H]1/C=C/O[C@@]2(C)Oc3c(C)c(O)c4c(c3C2=O)C2=NC3(CCN(CC(C)C)CC3)NC2=C(NC(=O)/C(C)=C\C=C\[C@H](C)[C@H](O)[C@@H](C)[C@@H](O)[C@@H](C)[C@H](OC(C)=O)[C@@H]1C)C4=O [Rifabutin] | >90% | 20-12% | 
CC(C)(C)NC(=O)[C@@H]1C[C@@H]2CCCC[C@@H]2CN1C[C@@H](O)[C@H](Cc1ccccc1)NC(=O)[C@H](CC(N)=O)NC(=O)c1ccc2ccccc2n1 [Saquinavir] | >90% |  | 
CN[C@H]1CC[C@@H](c2ccc(Cl)c(Cl)c2)c2ccccc21 [Sertraline] | >90% |  | 
CO[C@H]1C[C@@H]2CC[C@@H](C)[C@@](O)(O2)C(=O)C(=O)N2CCCC[C@H]2C(=O)O[C@H]([C@H](C)C[C@@H]2CC[C@@H](O)[C@H](OC)C2)CC(=O)[C@H](C)/C=C(\C)[C@@H](O)[C@@H](OC)C(=O)[C@H](C)C[C@H](C)/C=C/C=C/C=C/1C [Sirolimus(rapamycin), Sirolimus] | >90% | 20-10% | 
C=CC[C@@H]1/C=C(\C)C[C@H](C)C[C@H](OC)[C@H]2O[C@@](O)(C(=O)C(=O)N3CCCC[C@H]3C(=O)O[C@H](/C(C)=C/[C@@H]3CC[C@@H](O)[C@H](OC)C3)[C@H](C)[C@@H](O)CC1=O)[C@H](C)C[C@@H]2OC [Tacrolimus (FK506), Tacrolimus] | >90% | 20-15% | 
C[C@]12CC[C@H]3[C@@H](CCC4=CC(=O)CC[C@@]43C)[C@@H]1CC[C@@H]2O [Testosterone] | >90% | Poor | 
Cc1nnc2n1-c1ccc(Cl)cc1C(c1ccccc1Cl)=NC2 [Triazolam] | >90% | 45-70% | 
CC[C@]1(O)C[C@@H]2CN(CCc3c([nH]c4ccccc34)[C@@](C(=O)OC)(c3cc4c(cc3OC)N(C)[C@H]3[C@@](O)(C(=O)OC)[C@H](OC(C)=O)[C@]5(CC)C=CCN6CC[C@]43[C@@H]65)C2)C1 [Vinblastine] | >50% | Poor | 
CC[C@]1(O)C[C@H]2CN(CCc3c([nH]c4ccccc34)[C@@](C(=O)OC)(c3cc4c(cc3OC)N(C=O)[C@H]3[C@@](O)(C(=O)OC)[C@H](OC(C)=O)[C@]5(CC)C=CCN6CC[C@]43[C@@H]65)C2)C1 [Vincristine] | >50% | Poor | 
C#C[C@]1(O)C=C[C@H]2[C@@H]3CCC4=CC(=O)CC[C@@H]4[C@H]3CC[C@@]21CC [gestodene] |  |  | Kinactivation (P450 3A4 [4]): 0.4 min⁻¹
